Source: ChEMBL document CHEMBL1201862, “PubChem BioAssay data set” (2004)
The source made the active and inactive calls.

Assays:
Assay type in all cases: functional
[1] = target: Dual specificity tyrosine-phosphorylation-regulated kinase 1B (Homo sapiens, UniProt Q9Y463); assay: Navigating the Kinome. Panel member name: DYRK1B
[2] = target: Macrophage-stimulating protein receptor (Homo sapiens, UniProt Q04912); assay: Navigating the Kinome. Panel member name: MST1R
[3] = target: LIM domain kinase 1 (Homo sapiens, UniProt P53667); assay: Navigating the Kinome. Panel member name: LIMK1
Chain of LIM domain kinase 1 (P53667 whole entry, the tested form may be a part): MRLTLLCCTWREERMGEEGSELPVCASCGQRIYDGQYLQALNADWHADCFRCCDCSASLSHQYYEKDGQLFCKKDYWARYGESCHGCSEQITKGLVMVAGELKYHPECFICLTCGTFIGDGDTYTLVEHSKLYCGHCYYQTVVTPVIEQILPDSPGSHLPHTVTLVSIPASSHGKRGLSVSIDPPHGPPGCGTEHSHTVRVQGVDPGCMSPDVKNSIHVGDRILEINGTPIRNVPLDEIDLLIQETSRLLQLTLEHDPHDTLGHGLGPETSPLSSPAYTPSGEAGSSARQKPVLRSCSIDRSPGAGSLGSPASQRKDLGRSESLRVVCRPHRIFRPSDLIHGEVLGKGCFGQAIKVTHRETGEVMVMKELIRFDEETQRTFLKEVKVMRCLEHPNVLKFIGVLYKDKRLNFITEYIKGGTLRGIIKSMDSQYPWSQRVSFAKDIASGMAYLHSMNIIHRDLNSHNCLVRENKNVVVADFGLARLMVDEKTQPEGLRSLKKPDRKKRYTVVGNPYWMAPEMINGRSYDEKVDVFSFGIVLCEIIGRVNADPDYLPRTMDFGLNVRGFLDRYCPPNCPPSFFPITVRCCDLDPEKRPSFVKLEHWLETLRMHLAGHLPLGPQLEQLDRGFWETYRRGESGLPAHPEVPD

[4] = target: T1, Aurora kinase A (Homo sapiens, UniProt O14965);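 further: value from the Navigating the Kinome kinase panel profiling, panel entry STK6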
T1 sequence (O14965 whole entry): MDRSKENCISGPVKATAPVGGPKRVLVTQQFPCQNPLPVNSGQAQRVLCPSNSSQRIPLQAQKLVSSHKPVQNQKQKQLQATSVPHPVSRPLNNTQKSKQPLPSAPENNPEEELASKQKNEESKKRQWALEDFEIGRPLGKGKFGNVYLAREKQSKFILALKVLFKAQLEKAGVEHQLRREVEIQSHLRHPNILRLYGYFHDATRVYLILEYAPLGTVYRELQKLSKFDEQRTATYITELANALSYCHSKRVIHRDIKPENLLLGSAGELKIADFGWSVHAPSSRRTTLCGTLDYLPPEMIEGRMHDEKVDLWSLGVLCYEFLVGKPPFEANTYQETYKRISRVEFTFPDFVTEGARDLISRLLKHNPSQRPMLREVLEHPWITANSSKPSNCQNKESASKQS

[5] = target: T2, Receptor-type tyrosine-protein kinase FLT3 (Homo sapiens, UniProt P36888);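 further: FLT3 was tested as one member of a kinome-wide kinase panel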
T2 sequence (P36888 whole entry): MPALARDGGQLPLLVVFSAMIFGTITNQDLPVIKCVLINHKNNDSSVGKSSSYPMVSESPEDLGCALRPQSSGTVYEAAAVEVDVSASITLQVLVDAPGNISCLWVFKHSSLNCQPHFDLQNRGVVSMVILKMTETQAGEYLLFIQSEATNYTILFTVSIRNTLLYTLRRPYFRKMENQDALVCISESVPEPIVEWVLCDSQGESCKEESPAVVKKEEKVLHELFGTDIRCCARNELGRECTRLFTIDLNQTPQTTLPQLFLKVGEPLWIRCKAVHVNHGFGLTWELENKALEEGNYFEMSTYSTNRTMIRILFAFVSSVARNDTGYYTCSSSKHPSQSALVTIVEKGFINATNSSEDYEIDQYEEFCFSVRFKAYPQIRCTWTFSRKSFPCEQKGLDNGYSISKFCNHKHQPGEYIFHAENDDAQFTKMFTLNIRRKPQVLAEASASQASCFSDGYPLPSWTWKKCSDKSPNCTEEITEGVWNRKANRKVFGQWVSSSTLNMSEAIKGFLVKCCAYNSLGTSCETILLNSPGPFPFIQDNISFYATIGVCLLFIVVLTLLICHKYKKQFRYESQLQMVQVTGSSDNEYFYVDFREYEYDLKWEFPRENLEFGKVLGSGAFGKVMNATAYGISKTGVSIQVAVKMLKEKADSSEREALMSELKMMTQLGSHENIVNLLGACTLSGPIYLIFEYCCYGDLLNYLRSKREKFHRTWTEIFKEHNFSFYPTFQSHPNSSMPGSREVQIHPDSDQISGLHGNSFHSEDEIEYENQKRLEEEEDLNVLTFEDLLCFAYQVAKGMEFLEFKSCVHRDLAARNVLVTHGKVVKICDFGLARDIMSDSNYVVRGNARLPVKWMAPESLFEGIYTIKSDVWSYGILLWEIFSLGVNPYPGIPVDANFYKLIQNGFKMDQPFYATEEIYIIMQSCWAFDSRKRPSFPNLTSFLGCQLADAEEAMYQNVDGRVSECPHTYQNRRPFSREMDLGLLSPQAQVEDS

[6] = target: T3, Mitogen-activated protein kinase kinase kinase kinase 2 (Homo sapiens, UniProt Q12851);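 further: measured as one member of a kinome-wide kinase panel, with MAP4K2 as the panel entry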
T3 sequence (Q12851 whole entry): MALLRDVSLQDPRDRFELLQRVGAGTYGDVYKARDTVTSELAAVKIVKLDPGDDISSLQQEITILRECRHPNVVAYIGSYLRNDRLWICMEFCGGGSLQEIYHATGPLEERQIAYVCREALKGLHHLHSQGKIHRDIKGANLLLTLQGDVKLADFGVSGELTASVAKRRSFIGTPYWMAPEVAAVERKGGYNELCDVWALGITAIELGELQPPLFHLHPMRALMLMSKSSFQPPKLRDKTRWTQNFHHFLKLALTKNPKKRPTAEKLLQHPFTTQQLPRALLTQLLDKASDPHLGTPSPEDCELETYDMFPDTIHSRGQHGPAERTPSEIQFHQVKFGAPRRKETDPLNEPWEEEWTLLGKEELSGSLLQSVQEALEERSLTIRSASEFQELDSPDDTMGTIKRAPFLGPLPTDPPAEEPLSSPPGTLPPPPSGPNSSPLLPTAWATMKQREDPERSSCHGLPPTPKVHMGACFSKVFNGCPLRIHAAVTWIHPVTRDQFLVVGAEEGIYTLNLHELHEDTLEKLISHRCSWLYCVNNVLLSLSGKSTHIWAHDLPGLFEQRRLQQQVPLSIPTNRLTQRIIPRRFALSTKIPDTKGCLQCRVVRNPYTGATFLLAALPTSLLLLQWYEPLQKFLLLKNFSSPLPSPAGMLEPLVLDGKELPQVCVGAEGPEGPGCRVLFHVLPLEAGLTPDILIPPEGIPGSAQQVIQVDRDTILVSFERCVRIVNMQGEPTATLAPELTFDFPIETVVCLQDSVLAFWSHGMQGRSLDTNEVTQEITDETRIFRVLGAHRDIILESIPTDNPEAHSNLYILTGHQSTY

Chain of Macrophage-stimulating protein receptor (Q04912 25-304 limits assumed): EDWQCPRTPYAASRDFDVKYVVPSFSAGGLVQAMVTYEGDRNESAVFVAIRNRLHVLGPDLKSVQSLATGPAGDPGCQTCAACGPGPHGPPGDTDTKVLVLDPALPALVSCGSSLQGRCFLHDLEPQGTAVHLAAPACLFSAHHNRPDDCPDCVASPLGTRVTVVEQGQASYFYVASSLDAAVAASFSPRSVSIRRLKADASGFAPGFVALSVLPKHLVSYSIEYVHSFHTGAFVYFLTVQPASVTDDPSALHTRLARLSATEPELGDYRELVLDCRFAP
Chain of Macrophage-stimulating protein receptor (Q04912 310-1400 limits assumed): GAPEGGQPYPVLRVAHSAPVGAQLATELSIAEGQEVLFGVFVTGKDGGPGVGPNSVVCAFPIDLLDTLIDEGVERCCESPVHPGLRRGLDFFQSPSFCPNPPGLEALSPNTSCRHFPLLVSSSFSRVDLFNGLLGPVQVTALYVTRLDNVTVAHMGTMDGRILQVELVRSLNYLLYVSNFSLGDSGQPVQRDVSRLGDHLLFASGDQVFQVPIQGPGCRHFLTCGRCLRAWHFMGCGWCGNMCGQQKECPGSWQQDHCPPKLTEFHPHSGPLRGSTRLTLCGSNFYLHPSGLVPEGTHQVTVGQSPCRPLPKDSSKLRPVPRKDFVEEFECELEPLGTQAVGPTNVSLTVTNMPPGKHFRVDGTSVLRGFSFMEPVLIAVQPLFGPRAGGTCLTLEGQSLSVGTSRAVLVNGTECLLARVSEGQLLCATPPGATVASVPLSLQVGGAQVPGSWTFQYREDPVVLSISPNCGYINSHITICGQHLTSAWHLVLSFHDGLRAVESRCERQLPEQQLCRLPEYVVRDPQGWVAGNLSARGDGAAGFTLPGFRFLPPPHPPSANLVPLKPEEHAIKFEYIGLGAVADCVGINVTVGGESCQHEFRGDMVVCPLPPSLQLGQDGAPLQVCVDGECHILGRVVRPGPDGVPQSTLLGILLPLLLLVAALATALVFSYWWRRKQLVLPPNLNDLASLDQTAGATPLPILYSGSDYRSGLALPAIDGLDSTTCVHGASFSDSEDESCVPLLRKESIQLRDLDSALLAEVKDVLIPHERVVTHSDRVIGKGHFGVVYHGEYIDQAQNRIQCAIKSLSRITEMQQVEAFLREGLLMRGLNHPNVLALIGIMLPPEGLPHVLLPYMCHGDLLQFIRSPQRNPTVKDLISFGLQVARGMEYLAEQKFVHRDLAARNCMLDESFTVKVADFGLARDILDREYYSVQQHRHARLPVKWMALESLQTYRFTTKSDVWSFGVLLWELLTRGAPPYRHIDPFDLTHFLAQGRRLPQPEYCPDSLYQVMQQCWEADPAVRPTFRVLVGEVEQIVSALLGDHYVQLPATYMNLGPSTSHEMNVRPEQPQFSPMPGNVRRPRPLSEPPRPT
Chain of Dual specificity tyrosine-phosphorylation-regulated kinase 1B (Q9Y463 whole entry): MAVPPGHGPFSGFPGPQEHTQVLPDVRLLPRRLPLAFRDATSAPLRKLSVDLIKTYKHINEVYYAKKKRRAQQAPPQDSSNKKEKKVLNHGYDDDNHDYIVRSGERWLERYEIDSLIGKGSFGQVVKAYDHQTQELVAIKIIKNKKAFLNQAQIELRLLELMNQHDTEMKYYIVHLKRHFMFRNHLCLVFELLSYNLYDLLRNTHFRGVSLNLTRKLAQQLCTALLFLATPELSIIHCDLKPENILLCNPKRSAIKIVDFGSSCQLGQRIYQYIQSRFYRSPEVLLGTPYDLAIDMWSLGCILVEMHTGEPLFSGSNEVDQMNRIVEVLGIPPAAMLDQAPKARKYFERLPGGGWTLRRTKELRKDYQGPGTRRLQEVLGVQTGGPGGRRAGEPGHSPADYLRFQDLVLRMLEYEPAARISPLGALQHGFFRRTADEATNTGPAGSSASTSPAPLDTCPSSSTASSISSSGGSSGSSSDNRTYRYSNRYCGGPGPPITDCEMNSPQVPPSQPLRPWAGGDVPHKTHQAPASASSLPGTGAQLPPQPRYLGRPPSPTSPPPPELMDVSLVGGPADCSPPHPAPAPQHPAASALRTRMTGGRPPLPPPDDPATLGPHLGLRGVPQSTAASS

Compound | Ki [1] | Ki [2] | Ki [3] | Ki [4] | Ki [5] | Ki [6]
O=C1Nc2cc(-c3ccc(O)cc3)ccc2C1=Cc1ccc[nH]1 | 0.398 µM (active) | 0.0631 µM (active) | 2.51 µM (active) | > 1.58 µM (inactive) | > 3.16 µM (inactive) | 0.0316 µM (active)
NC(COc1cncc(-c2ccc3c(c2)C(=Cc2ccc[nH]2)C(=O)N3)c1)Cc1ccccc1 (stereo not drawn) | 0.001 µM (active) | 0.00158 µM (active) | 0.501 µM (active) | 0.251 µM (active) | 0.0251 µM (active) | 0.0158 µM (active)
O=C1Cc2cc(-c3ccccc3)cnc2N1 | 50.1 µM (active) | 79.4 µM (active) | 63.1 µM (active) | 20 µM (active) | 79.4 µM (active) | 31.6 µM (active)
